“Also recorded” adds a separate entry of the source.
Experiments:
[1] = tested on: Western diet-fed wild-type (C57BL/6) mice; experiment: Energy expenditure assay; assay type: in vivo, mouse; conditions: DSCG-treated WT mice vs untreated WT mice
Excerpt: (§1) Wild-type (C57BL/6), Il6^−/− (C57BL/6, N11), and Ifng^−/− (C57BL/6, N10) mice were purchased from the Jackson Laboratories (Bar Harbor, Me.). Congenic Tnf^−/− (C56BL/6, N10) and mast cell-deficient Kit^W-sh/W-sh (C57BL/6, N>10) mice were generated by back-crossing to the C57BL/6 background as described (Sun, et al. Nat. Med. 13:719-724 (2007); Wolters, et al., Clin Exp Allergy 35:82-88 (2005)). The standing committee of Harvard Medical School approved all animal research protocols, and all mice were housed in a pathogen-free facility. To induce obesity, we fed 6-week-old mice (females and males) a Western diet (Research Diet, New Brunswick, N.J.) for 12-20 weeks. Mouse body weight was monitored weekly. By the end of each course of Western diet consumption, we performed glucose tolerance and energy expenditure assays as reported previously (Yang, et al., Nat. Cell Biol. 9:970-977 (2007)). Mouse blood samples were collected for serum adipokine measurement. Subcutaneous, visceral, and brown fat and skeletal muscle were harvested individually for protein extraction and paraffin section preparation. Tissue protein extracts were used for ELISA, immunoblot analysis, and cysteinyl cathepsin active site labeling. […]

[2] = tested on: mast cell-deficient Kit^W-sh/W-sh mice; experiment: DSCG treatment of mast cell-deficient Kit W-sh/W-sh mice on Western diet; assay type: in vivo, mouse
Excerpt: as §1

[3] = tested on: Western diet-fed wild-type (C57BL/6) mice; experiment: Glucose tolerance assay in Western diet-fed mice; assay type: in vivo, mouse; conditions: WT mice treated with DSCG
Excerpt: as §1

[4] = tested on: UCP1, fibronectin, Glut4, insulin receptor; experiment: Immunoblot analysis of tissue protein extracts; assay type: in vivo, mouse
Excerpt: Wild-type (C57BL/6), Il6^−/− (C57BL/6, N11), and Ifng^−/− (C57BL/6, N10) mice were purchased from the Jackson Laboratories (Bar Harbor, Me.). Congenic Tnf^−/− (C56BL/6, N10) and mast cell-deficient Kit^W-sh/W-sh (C57BL/6, N>10) mice were generated by back-crossing to the C57BL/6 background as described (Sun, et al. Nat. Med. 13:719-724 (2007); Wolters, et al., Clin Exp Allergy 35:82-88 (2005)). The standing committee of Harvard Medical School approved all animal research protocols, and all mice were housed in a pathogen-free facility. To induce obesity, we fed 6-week-old mice (females and males) a Western diet (Research Diet, New Brunswick, N.J.) for 12-20 weeks. Mouse body weight was monitored weekly. By the end of each course of Western diet consumption, we performed glucose tolerance and energy expenditure assays as reported previously (Yang, et al., Nat. Cell Biol. 9:970-977 (2007)). Mouse blood samples were collected for serum adipokine measurement. Subcutaneous, visceral, and brown fat and skeletal muscle were harvested individually for protein extraction and paraffin section preparation. Tissue protein extracts were used for ELISA, immunoblot analysis, and cysteinyl cathepsin active site labeling. For immunoblot analysis, 30 μg of proteins were separated on an 8% SDS-PAGE to detect 220 kDa fibronectin (mouse monoclonal, 1:100, NeoMarkers, Fremont, Calif.) and 200 kDa insulin receptor (mouse monoclonal, 1:100, Calbiochem, San Diego, Calif.) or a 12% SDS-PAGE to detect Glut4 (mouse monoclonal, 1:200, R&D Systems, Minneapolis, Minn.), UCP1 (rabbit polyclonal, 1:3000, Abcam, Cambridge, Mass.), actin (mouse monoclonal, 1:500, Abcam), and glyceraldehyde-3-phosphate dehydrogenase (GAPDH, rabbit polyclonal, 1:1000, Santa Cruz Biotechnolog, Santa Cruz, Calif.). For cathepsin active site labeling, 30 μg of proteins were incubated with 1 μl of 600 mM dithiothreitol and 1 μl of [^125I]-JPM in a pH5.5 buffer as previously described. After incubating the reaction mixture at 37° C. for 1 hour, labeled proteins were separated on a 12% SDS-PAGE. Gel was stained with Coomassie blue, destained, dried, and exposed to an x-ray film. The liver and GI tract were harvested for histologic analysis.

[5] = tested on: Western diet-fed wild-type (C57BL/6) mice; experiment: Diet-induced obesity, Western diet with daily i.p. DSCG; assay type: in vivo, mouse
Excerpt: as §1

[6] = tested on: liver, gastrointestinal tract, pancreas
Excerpt: Wild-type (C57BL/6), Il6^−/− (C57BL/6, N11), and Ifng^−/− (C57BL/6, N10) mice were purchased from the Jackson Laboratories (Bar Harbor, Me.). Congenic Tnf^−/− (C56BL/6, N10) and mast cell-deficient Kit^W-sh/W-sh (C57BL/6, N>10) mice were generated by back-crossing to the C57BL/6 background as described (Sun, et al. Nat. Med. 13:719-724 (2007); Wolters, et al., Clin Exp Allergy 35:82-88 (2005)). The standing committee of Harvard Medical School approved all animal research protocols, and all mice were housed in a pathogen-free facility. To induce obesity, we fed 6-week-old mice (females and males) a Western diet (Research Diet, New Brunswick, N.J.) for 12-20 weeks. Mouse body weight was monitored weekly. […]
Human and mouse WAT and muscle tissues were fixed with 10% formalin overnight and embedded in paraffin, from which 5 μm sections were prepared. […] Researchers blinded to the origin of tissue counted human tryptase-positive and CD117-positive mast cells, and data are presented as cell numbers per mm^2. CD31-positive areas in WAT and muscle were determined using Image-Pro Plus software as described, and data were presented as percentage of CD31-positive areas (Wang, et al., J. Biol. Chem. 281:6020-6029 (2006); Wild, Microvasc Res. 59:368-376 (2000)). […]

[7] = tested on: obese and diabetic WT mice; experiment: Treatment of established diet-induced obesity and diabetes (four treatment groups); assay type: in vivo, mouse
Excerpt: To assess the direct participation of mast cells in obesity, we studied mast cell-deficient Kit^W-sh/W-sh mice in diet-induced obesity. While Kit^W-sh/W-sh mice lack mature mast cells due to an inversion mutation of the c-Kit promoter region (Duttlinger, et al., Proc. Nat'l Acad. Sci. USA 92:3754-3758 (1995)), numbers and activities of other leukocytes in blood are normal, permitting probing of mast cell functions in vivo. […] To extend our observations, we fed WT mice a Western diet for 12 weeks to produce obesity and diabetes, and grouped these obese and diabetic mice into four treatment groups: I, continued feeding with a Western diet; II, switched to a chow diet; III, continued feeding with a Western diet together with a daily i.p. injection of DSCG; IV, switched to a chow diet and treated with DSCG.

[8] = tested on: IL6, TNF-α, IFN-γ, MCP-1, adiponectin, MMP-9, CatS, CatL, leptin in serum and/or WAT; experiment: ELISA of serum and WAT adipokines; assay type: in vivo, mouse
Excerpt: Mouse body weight was monitored weekly. […] Mouse blood samples were collected for serum adipokine measurement.
Frozen mouse WAT was pulverized and lysed in a RIPA buffer (Pierce, Rockford, Ill.) containing a protease inhibitor cocktail (Calbiochem, San Diego, Calif.). Both WAT and serum samples were subjected to ELISA analysis for IL6 (BD Biosciences), TNF-α (PeproTech, Rocky Hill, N.J.), IFN-γ (PeproTech), MCP-1 (PeproTech), adiponectin (R&D Systems), MMP-9 (R&D Systems), CatS (R&D Systems), and CatL (Bender MedSystems Inc, Burlingame, Calif.) according to manufacturers' instructions.

[9] = tested on: CD117-positive mast cells and CD31-positive areas in WAT and muscle; experiment: Immunohistology of WAT and muscle (CD117 mast cells, CD31 microvessels); assay type: in vivo, mouse; conditions: DSCG-treated vs untreated mice, same dietary conditions
Method: Human and mouse WAT and muscle tissues were fixed with 10% formalin overnight and embedded in paraffin, from which 5 μm sections were prepared. Anti-human mast cell tryptase (mouse monoclonal, 1:100, Dako, TRAPPES CEDEX, France), anti-mouse mast cell CD117 (rat monoclonal, 1:10, eBiosciences, Inc., San Diego, Calif.), and anti-mouse CD31 (rat monoclonal, 1:400, Pharmingen, San Diego, Calif.) immunostained for mast cells and microvessels on WAT, muscle, and liver sections. Researchers blinded to the origin of tissue counted human tryptase-positive and CD117-positive mast cells, and data are presented as cell numbers per mm^2. CD31-positive areas in WAT and muscle were determined using Image-Pro Plus software as described, and data were presented as percentage of CD31-positive areas (Wang, et al., J. Biol. Chem. 281:6020-6029 (2006); Wild, Microvasc Res. 59:368-376 (2000)). Hematoxylin and eosin staining assisted histologic assessment of the GI tract.

What does the source list for `O=C(O)c1cc(=O)c2c(OCC(O)COc3cccc4oc(C(=O)O)cc(=O)c34)cccc2o1` [DSCG, disodium cromoglycate]?
O2 consumption and CO2 production [1]: significantly more O2 consumption and CO2 production; resting metabolic rate [1]: increased resting metabolic rate; glucose tolerance in Kit^W-sh/W-sh mice [2]: did not further change; body weight (gain) of Kit^W-sh/W-sh mice ([2]; Western diet): did not further affect the body weight; also recorded: did not further change; glucose tolerance [3]: significantly improved glucose tolerance; Glut4 in WAT and muscle ([4]; DSCG-treated mice): more; fibronectin in WAT and muscle ([4]; DSCG-treated mice): more; insulin receptor (IR) in WAT and muscle ([4]; DSCG-treated mice): more; brown fat UCP1 expression ([4]; brown fat, vs WT control mice): obviously higher brown fat UCP1 expression; body weight gain ([5]; male WT mice, Western diet 12 weeks, daily i.p. injection, vs untreated WT): attenuated body weight gain; total subcutaneous and visceral fat ([5]; male mice, Western diet, vs untreated WT controls): significantly less total subcutaneous and visceral fat; mast cells or lipid-loaded adipocytes in livers ([6]; Western diet-fed WT mice treated with DSCG): did not detect mast cells or lipid-loaded adipocytes; food/water intake and toxic effect ([6]; mouse, in vivo): neither reduced food/water intake nor any toxic effect of DSCG; body weight decrease ([7]; group III: obese mice, continued Western diet plus daily i.p. DSCG, eight weeks): 12%; glucose tolerance ([7]; group IV: chow diet plus DSCG, compared among four groups): highest glucose tolerance among the four groups; body weight at which mice stabilized ([7]; group IV: chow diet plus DSCG, eight weeks): 40˜41 grams; body weight decrease ([7]; group IV: obese mice switched to chow diet and treated with DSCG, eight weeks): 19%; serum leptin levels ([8]; male and female mice, Western diet, vs WT controls): significantly lower levels; CatS levels in serum (ELISA) ([8]; serum): reduced significantly; CatL level ([8]; serum and/or WAT, Western diet): did not change significantly; IFN-γ level ([8]; serum and/or WAT, Western diet): lower levels; IL6 level ([8]; serum and/or WAT, Western diet): lower levels; MCP-1 level ([8]; serum and/or WAT, Western diet): lower levels; TNF-α level ([8]; serum and/or WAT, Western diet): lower levels; adiponectin level ([8]; serum and/or WAT, Western diet): did not change significantly; cathepsin S (CatS) level ([8]; serum and/or WAT, Western diet): lower levels; matrix metalloprotease-9 (MMP-9) level ([8]; serum and/or WAT, Western diet): lower levels; mast cell numbers in WAT [9]: mast cell numbers similar to WAT from untreated mice

Reference: patent publication US8785383B2, “Mast cell stabilizers in the treatment of obesity” (The Brigham and Women's Hospital, Inc., priority 2007, dated 2014)
